Emax and EC50 data for 7 molecules are collected here from patent US11358956B2, “Compounds containing polysubstituted benzo[d][1,3]oxathiole, benzo[d][1,3]oxathiole 3-oxide or benzo[d][1,3]oxathiole 3,3-dioxide and methods/uses thereof as agonists of G protein-coupled receptor 119” (PRAMANA PHARMACEUTICALS INC., priority 2017, dated 2022).

pEC50: −log10 of the molar value. Where two headings read alike, the source gives them in different places.

In assay [1] the target is T1, human GPR119 receptor (Homo sapiens, UniProt Q8TDV5).
T1 construct: host or cells: CHO
T1 sequence (Q8TDV5 1-335): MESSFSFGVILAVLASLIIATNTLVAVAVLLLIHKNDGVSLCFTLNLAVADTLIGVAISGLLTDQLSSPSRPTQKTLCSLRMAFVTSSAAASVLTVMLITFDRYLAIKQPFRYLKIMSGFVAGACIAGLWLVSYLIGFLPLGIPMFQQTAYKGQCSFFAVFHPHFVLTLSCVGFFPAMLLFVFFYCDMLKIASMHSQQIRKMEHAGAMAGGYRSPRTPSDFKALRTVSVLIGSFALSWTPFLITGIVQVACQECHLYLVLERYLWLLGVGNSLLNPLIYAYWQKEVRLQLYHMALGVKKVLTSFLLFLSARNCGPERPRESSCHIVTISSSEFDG
Briefly: LANCE Ultra cAMP assay: stimulation of GPR119-mediated cAMP production in CHO cells stably expressing human GPR119 receptor. It counts as cell-based. The conditions noted are these: read-out: % cAMP Max. relative to forscolin.

The target of assay [2] is T1, human GPR119 receptor. Described as above. It is filed as cell-based. On the procedure:
The potency of GPR119 receptor agonists was assessed by measuring the stimulation of GPR119-mediated cAMP production with LANCE Ultra cAMP assay (Perkin Elmer, TRF0264) in CHO cells stably expressing human GPR119 receptor (Chantest, cat. #A633). CHO-GPR119 cells were cultured in DMEM/F12 medium supplemented with 10% FBS and 1% NEAA at 37° C., 5% CO2, aliquoted and frozen in liquid nitrogen.
For assay, cells were thawed in a water bath at 37° C., washed in Hank's Balanced Salt Solution (HBSS) and resuspended in Stimulation Buffer 1 (SB1) for 30 min: 5 mM HEPES, pH 7.2-7.4, 0.1% BSA in HBSS. […] The ULight-anti-cAMP antibody (Perkin Elmer, TRF0264) was added to the cell suspension making Mix [Cell suspension/4× ULight-anti-cAMP antibodies]. The resulting cell suspension Mix was plated to 384-well assay plates (Corning, white low volume, #3674) 5 µL/well. The assay plate was centrifuged 200 g, 5 sec.
Serial dilution (100×) of tested compounds were prepared in DMSO in the range of from 30 nM to 1 mM with half-log step in 384-well plates (Greiner, 781280) using Biomek 2000. 10 test concentrations in two repeats were prepared for each CRC. It was diluted 50 times in SB1 and each tested concentration was added to cells in the assay plate—5 µL/well. The assay plate was incubated 30 minutes at room temperature on a shaker, 250 rpm to allow GPR119 receptor stimulation. The cAMP level was determined according to the standard kit supplier protocol (PerkinElmer, cat. #TRF0264).
The stock solution of the Eu-cAMP tracer (Perkin Elmer, TRF0264) was diluted 1:100 in cAMP Detection Buffer (Perkin Elmer, TRF0264), making 2× working concentration and added to the assay plate, 10 μL per well. Assay plate was centrifuged 180 g, 1 sec. Then the assay plate was incubated for 60′ at room temperature on shaker, 250 rpm to allow cAMP detection. The TR-FRET signal was measured at Ex-340 nm/Em-615 and Ex-340 nm/Em-665 nm on the reader Tecan M1000. 0% of cAMP stimulation corresponds to the cells with DMSO only, 100% of cAMP stimulation corresponds to the cells with […] Forskolin. The EC50 value defined as the concentration of the drug that gives half-maximal response, were calculated using GraphPad Prizm 5.0 software with forskolin was used as references at each test. Entries 1-17 in Table 2A and entries 1-14 in Table 2B show the biological activity of certain representative compounds using the protocol as described above.

The mark [3] stands for this setting: Table 2C entries 1-4, modified protocol, 500 cells/well.
Setting [4] is: Table 2A entries 1-17, protocol as described (800,000 cells/mL suspension), CHO-GPR119 cells.

Regarding `O=S1(=O)c2ccc(-c3ccc(OCC4CCN(c5ncc(Cl)cn5)CC4)c(F)c3)cc2OC12CCC2` [Example C-14, 5-chloro-2-(4-{[4-(3,3-dioxidospiro[1,3-benzoxathiole-2,1′-cyclobutan]-6-yl)-2-fluorophenoxy]methyl}piperidin-1-yl)pyrimidine], in assay [1] (setting [3]), the Emax turned out to be 67%. The pEC50 in assay [2] (setting [3]) was 7.53. As for `CC1(C)Oc2cc(-c3ccc(OCC4CCN(c5ncc(Cl)cn5)CC4)c(F)c3)ccc2S1(=O)=O` [Example C-5, 5-chloro-2-(4-{[4-(2,2-dimethyl-3,3-dioxido-1,3-benzoxathiol-6-yl)-2-fluorophenoxy]methyl}piperidin-1-yl)pyrimidine], in assay [1] (setting [3]), the Emax came to 81%. The molecule further showed a pEC50 in assay [2] (setting [3]) of 7.16. Consider `O=C(O)CN1CCC(COc2ccc(-c3ccc4c(c3)OCS4(=O)=O)cc2F)CC1` [Example A-23, 2-(4-((4-(3,3-Dioxido-2H-benzo[d][1,3]oxathiol-6-yl)-2-fluorophenyoxy) Methyl)-piperidin-1-yl)acetic Acid], for which the Emax in assay [1] (Table 2A entries 1-17, protocol as described, 100% = cells with Forskolin, 0% = DMSO only) was found to be 66%. This molecule showed a pEC50 in assay [2] (setting [4]) of 5.15. Turning to `O=S1(=O)c2ccc(-c3ccc(OCC4CCN(c5ncc(Cl)cn5)CC4)c(F)c3)cc2OC12CCCCC2` [Example C-11, 5-chloro-2-(4-{[4-(3,3-dioxidospiro[1,3-benzoxathiole-2,1′-cyclohexan]-6-yl)-2-fluorophenoxy]methyl}piperidin-1-yl)pyrimidine], the Emax in assay [1] (setting [3]) was 25%. The pEC50 in assay [2] (setting [3]) was 7.48.

In assay [2] (setting [4]), `NCC(=O)N1CCC(COc2ccc(-c3ccc4c(c3)OCS4(=O)=O)cc2F)CC1` [Example A-17] showed a pEC50 of 5.00. Regarding `O=S1(=O)c2ccc(-c3ccc(OCC4CCN(c5ncc(Cl)cn5)CC4)c(F)c3)cc2OC12CCCC2` [Example C-8, 5-chloro-2-(4-{[4-(3,3-dioxidospiro[1,3-benzoxathiole-2,1′-cyclopentan]-6-yl)-2-fluorophenoxy]methyl}piperidin-1-yl)pyrimidine], in assay [1] (setting [3]), the Emax came out at 66%. Besides, the pEC50 in assay [2] (setting [3]) is 6.94. In the case of `NC(=O)N1CCC(COc2ccc(-c3ccc4c(c3)OCS4(=O)=O)cc2F)CC1` [Example A-20], the pEC50 in assay [2] (setting [4]) is 5.00.

The pEC50 is the negative decadic logarithm of the EC50, by convention in mol/L. A low value points to a high EC50.
